The assay has as its target T1, TANK-2 enzyme (Homo sapiens, UniProt Q9H2K2).
T1 construct: made in house
T1 sequence (Q9H2K2 1-1166): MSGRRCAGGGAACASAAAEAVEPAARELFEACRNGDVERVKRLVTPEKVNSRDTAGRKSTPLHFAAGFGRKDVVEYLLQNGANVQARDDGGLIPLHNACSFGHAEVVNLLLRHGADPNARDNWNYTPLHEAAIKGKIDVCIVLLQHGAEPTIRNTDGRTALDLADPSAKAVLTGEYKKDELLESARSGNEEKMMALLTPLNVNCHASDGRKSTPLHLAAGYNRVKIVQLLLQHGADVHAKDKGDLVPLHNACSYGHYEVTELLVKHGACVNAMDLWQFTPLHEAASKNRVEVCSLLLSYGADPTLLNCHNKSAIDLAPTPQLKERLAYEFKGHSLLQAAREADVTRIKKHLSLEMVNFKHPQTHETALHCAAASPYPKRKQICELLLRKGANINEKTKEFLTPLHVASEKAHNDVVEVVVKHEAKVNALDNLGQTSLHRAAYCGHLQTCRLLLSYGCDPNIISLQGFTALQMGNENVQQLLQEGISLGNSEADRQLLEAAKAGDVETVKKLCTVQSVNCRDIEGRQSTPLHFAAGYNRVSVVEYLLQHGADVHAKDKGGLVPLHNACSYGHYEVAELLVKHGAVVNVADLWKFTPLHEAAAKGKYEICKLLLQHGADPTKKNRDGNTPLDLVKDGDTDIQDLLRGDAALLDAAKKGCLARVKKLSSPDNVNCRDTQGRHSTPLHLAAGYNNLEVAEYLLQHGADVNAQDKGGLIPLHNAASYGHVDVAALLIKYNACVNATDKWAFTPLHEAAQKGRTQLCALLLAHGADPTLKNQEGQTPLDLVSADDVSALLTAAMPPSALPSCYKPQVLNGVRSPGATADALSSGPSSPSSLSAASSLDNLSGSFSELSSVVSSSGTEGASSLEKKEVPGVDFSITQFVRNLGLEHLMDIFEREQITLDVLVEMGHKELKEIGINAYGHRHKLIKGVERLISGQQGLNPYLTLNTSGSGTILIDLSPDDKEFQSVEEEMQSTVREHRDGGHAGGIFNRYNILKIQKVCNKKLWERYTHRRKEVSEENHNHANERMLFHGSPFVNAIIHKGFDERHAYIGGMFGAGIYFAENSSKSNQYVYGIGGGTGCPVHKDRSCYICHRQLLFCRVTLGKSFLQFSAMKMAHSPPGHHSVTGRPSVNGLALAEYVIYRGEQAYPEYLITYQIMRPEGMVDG
Put plainly: In vitro Scintillation Proximity Assay (SPA) for TANK-2 inhibitory activity. Format: biochemical. To be noted: read-out: in vitro SPA assay TANK-2 pIC50 (converted). The method, boiled down: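 Results are pIC50 values, with IC50 interpolated linearly around 50% of blank-subtracted control cpm. They come from a scintillation proximity read of TANK-2 (8 μg/ml) self-modification with [3H]-NAD+/NAD, incubated 120 min at room temperature in pH 7.4 Tris buffer containing MgCl2 and DTT. Compounds were first screened at 10^−5 M.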

This note sets out measurements from patent US8778966B2, “Quinolinone derivatives as PARP and tank inhibitors” (Janssen Pharmaceutica, NV, priority 2007, dated 2014).

Regarding `CCc1cc2ccc(C(C)(C#N)Cc3cccc(C#N)n3)cc2[nH]c1=O` (single isomer, unassigned) [Compound 206], the IC50 is 50.1 nM. As to `CCc1cc2ccc(C(C)(C#N)Cc3cccc(C#N)n3)cc2[nH]c1=O` (single isomer, unassigned) [Compound 207], the IC50 is 31.6 nM.

On to `CCc1cc2ccc([C@@](C)(C#N)Cc3cccc(N(C)C)c3)cc2[nH]c1=O` (single isomer, unassigned) [Compound 258], for which the IC50 is 501 nM.

As for `CCc1cc2ccc([C@](C)(C#N)Cc3cccc(N(C)C)c3)cc2[nH]c1=O` (single isomer, unassigned) [Compound 259], the IC50 was 200 nM.

As for `CCC[C@@](C#N)(Cc1ccccc1)c1ccc2cc(CC)c(=O)[nH]c2c1` (single isomer, unassigned) [Compound 263], the IC50 was 2000 nM. Next, `CCC[C@](C#N)(Cc1ccccc1)c1ccc2cc(CC)c(=O)[nH]c2c1` (single isomer, unassigned) [Compound 264]: 2510 nM; `CCc1cc2ccc([C@@](C)(C#N)Cc3cccc(C#N)c3)cc2[nH]c1=O` (single isomer, unassigned) [Compound 268]: 79.4 nM.

As to `CCc1cc2ccc([C@](C)(C#N)Cc3cccc(C#N)c3)cc2[nH]c1=O` (single isomer, unassigned) [Compound 269], the IC50 was 158 nM.

`CCc1cc2ccc([C@](C)(C#N)C[C@@H]3Cc4cc(C)ccc4O3)cc2[nH]c1=O` (single isomer, unassigned) [Compound 400]: the IC50 was 501 nM. To `C#Cc1cccc(C[C@](C)(C#N)c2ccc3cc(CC)c(=O)[nH]c3c2)c1` [Compound 2] belongs 398 nM; to `C#Cc1cccc(C[C@@](C)(C#N)c2ccc3cc(CC)c(=O)[nH]c3c2)c1` [Compound 3], 501 nM; to `CCc1cc2ccc(C(C#N)(CC)Cc3ccccc3)cc2[nH]c1=O` (centres unmarked) [Compound 32], 79.4 nM. To `COc1ccccc1-c1nc(CC(C)(C#N)c2ccc3cc(C)c(=O)[nH]c3c2)no1` (centres unmarked) [Compound 33] belongs 158 nM; to `Cc1cc2ccc(C(C)(C#N)Cc3cccc(C#N)c3)cc2[nH]c1=O` (centres unmarked) [Compound 34], 31.6 nM. On to `Cc1cc2ccc([C@@](C)(C#N)Cc3cccc(C#N)c3)cc2[nH]c1=O` [Compound 35], for which the IC50 was 316 nM. Consider `Cc1cc2ccc([C@](C)(C#N)Cc3cccc(C#N)c3)cc2[nH]c1=O` [Compound 36], for which the IC50 is 200 nM. To `Cc1cc2ccc(C(C)(C#N)Cc3cccc(Cl)c3)cc2[nH]c1=O` (centres unmarked) [Compound 37] belongs 79.4 nM; to `CC(C)c1cc2ccc(C(C)(C#N)Cc3ccccc3)cc2[nH]c1=O` (centres unmarked) [Compound 38], 501 nM. Regarding `CC(=O)c1cc2ccc(C(C)(C#N)Cc3ccccc3)cc2[nH]c1=O` (centres unmarked) [Compound 39], the IC50 is 316 nM. Next, `CCc1cc2ccc(C(C)(C#N)Cc3cccc(OC[C@@H](O)CO)c3)cc2[nH]c1=O` (some centres unmarked) [Compound 56]: 1580 nM. In the case of `CCc1cc2ccc(C(C)(C#N)Cc3cccc(CCC#N)c3)cc2[nH]c1=O` (centres unmarked) [Compound 169], the IC50 was 398 nM.

As to `CCc1cc2ccc(C(C)(C#N)Cc3cccc(CNS(C)(=O)=O)c3)cc2[nH]c1=O` (centres unmarked) [Compound 170], the IC50 was 794 nM. Next, `C=Cc1cccc(CC(C)(C#N)c2ccc3cc(CC)c(=O)[nH]c3c2)c1` (centres unmarked) [Compound 172]: 794 nM; `CCc1cc2cc(F)c(C(C)(C#N)Cc3cccc(C#N)c3)cc2[nH]c1=O` (centres unmarked) [Compound 175]: 100 nM. Turning to `CCc1c(C)c2ccc(C(C)(C#N)Cc3cccc(C#N)c3)cc2[nH]c1=O` (centres unmarked) [Compound 181], the IC50 is 158 nM. Next, `CCc1cc2cc(OCCOC)c(C(C)(C#N)Cc3cccc(C#N)c3)cc2[nH]c1=O` (centres unmarked) [Compound 182]: 31.6 nM; `CCc1cc2ccc(C(C)(C#N)Cc3cccc(C#CCO)c3)cc2[nH]c1=O` (centres unmarked) [Compound 183]: 794 nM; `CCc1cc2ccc(C(F)(C#N)Cc3ccccc3)cc2[nH]c1=O` (centres unmarked) [Compound 187]: 316 nM.

In the case of `CCc1cc2ccc(C(C)(C#N)CN(C)Cc3ccccc3)cc2[nH]c1=O` (centres unmarked) [Compound 189], the IC50 was 2510 nM.

On to `CCc1cc2ccc(C(C)(C#N)C(C)c3ccccc3)cc2[nH]c1=O` (centres unmarked) [Compound 198], for which the IC50 is 794 nM.

In the case of `CCc1cc2ccc([C@](C)(C#N)[C@@H](C)c3ccccc3)cc2[nH]c1=O` [Compound 199], the IC50 is 1260 nM. Consider `CCc1cc2ccc([C@](C)(C#N)[C@H](C)c3ccccc3)cc2[nH]c1=O` [Compound 200], for which the IC50 is 1260 nM. Next, `CCc1cc2ccc(C(C)(C#N)Cc3cccc(C#C[Si](C)(C)C)n3)cc2[nH]c1=O` (centres unmarked) [Compound 210]: 3980 nM; `C#Cc1cccc(CC(C)(C#N)c2ccc3cc(CC)c(=O)[nH]c3c2)n1` (centres unmarked) [Compound 211]: 398 nM; `CCc1cc2ccc(C(C)(C#N)Cc3cccc(N(C)C)n3)cc2[nH]c1=O` (centres unmarked) [Compound 213]: 126 nM. Consider `CCc1cc2ccc(C(C)(C#N)Cc3cccc(I)n3)cc2[nH]c1=O` (centres unmarked) [Compound 214], for which the IC50 is 50.1 nM. As to `CCOC(=O)c1cccc(CC(C)(C#N)c2ccc3cc(CC)c(=O)[nH]c3c2)n1` (centres unmarked) [Compound 215], the IC50 was 2000 nM. To `CCc1cc2ccc(C(C)(C#N)Cc3cccc(COC)n3)cc2[nH]c1=O` (centres unmarked) [Compound 216] belongs 1260 nM; to `CCc1cc2ccc(C(C)(C#N)Cc3cccc(OCCOC)n3)cc2[nH]c1=O` (centres unmarked) [Compound 219], 398 nM; to `CCc1cc2ccc(C(C)(C#N)Cc3cccc(CN)n3)cc2[nH]c1=O` (centres unmarked) [Compound 221], 251 nM. Next, `CCc1cc2ccc(C(C)(C#N)Cc3cccc(OCCO)c3)cc2[nH]c1=O` (centres unmarked) [Compound 262]: 631 nM; `CCc1cc2ccc(C(C)(C#N)CCOc3cccc(C(F)(F)F)c3)cc2[nH]c1=O` (centres unmarked) [Compound 274]: 2510 nM; `CCc1cc2ccc(C(C)(C#N)Cc3cccc(CN)c3)cc2[nH]c1=O` (centres unmarked) [Compound 290]: 316 nM.

On to `CCc1cc2ccc(C(C)(C#N)Cc3cccc(/C=C/S(C)(=O)=O)c3)cc2[nH]c1=O` (centres unmarked) [Compound 292], for which the IC50 is 126 nM.

Take `CCc1c(Cl)c2ccc(C(C)(C#N)Cc3cccc(C#N)c3)cc2[nH]c1=O` (centres unmarked) [Compound 293]: the IC50 was 1000 nM. Consider `CCc1cc2cc(OC)c(C(C)(C#N)Cc3ccccc3)cc2[nH]c1=O` (centres unmarked) [Compound 294], for which the IC50 is 158 nM. To `CCc1cc2ccc(C(C)(C#N)Cc3cccc(C#CCOC)c3)cc2[nH]c1=O` (centres unmarked) [Compound 297] belongs 1580 nM; to `CCc1cc2ccc(C(C)(C#N)Cc3cccc(C#CCN(C)C)c3)cc2[nH]c1=O` (centres unmarked) [Compound 298], 1580 nM. To `CCc1cc2ccc(C(C)(C#N)CNCc3cccc(C#N)c3)cc2[nH]c1=O` (centres unmarked) [Compound 301] belongs 79.4 nM; to `CCc1cc2ccc(C(C)(C#N)Cc3cnc(Cl)nc3Cl)cc2[nH]c1=O` (centres unmarked) [Compound 306], 126 nM; to `COc1cc(OC)nc(CC(C)(C#N)c2ccc3cc(C)c(=O)[nH]c3c2)n1` (centres unmarked) [Compound 308], 3160 nM. `CCOc1cc(OCC)nc(CC(C)(C#N)c2ccc3cc(CC)c(=O)[nH]c3c2)n1` (centres unmarked) [Compound 309]: the IC50 is 2000 nM. To `CCc1cc2ccc(C(C)(C#N)Cc3cccc(Cl)n3)cc2[nH]c1=O` (centres unmarked) [Compound 310] belongs 251 nM. As for `CCc1cc2ccc(C(C)(C#N)Cc3ncc(C)c(OC)c3C)cc2[nH]c1=O` (centres unmarked) [Compound 311], the IC50 is 1260 nM.

As for `CCc1cc2ccc(C(C)(C#N)Cc3ccc(C)nc3)cc2[nH]c1=O` (centres unmarked) [Compound 327], the IC50 is 631 nM. On to `CCc1cc2ccc(C(C)(C#N)Cc3cccc(C#N)n3)cc2[nH]c1=O` (centres unmarked) [Compound 329], for which the IC50 is 316 nM.

On to `CCCn1ccnc1CC(C)(C#N)c1ccc2cc(CC)c(=O)[nH]c2c1` (centres unmarked) [Compound 335], for which the IC50 was 501 nM. For the compound `CCc1cc2ccc(C(C)(C#N)Cc3ccc4ccccc4n3)cc2[nH]c1=O` (centres unmarked) [Compound 336], the IC50 is 100 nM. To `CCc1cc2ccc(C(C)(C#N)Cc3nccn3CC)cc2[nH]c1=O` (centres unmarked) [Compound 337] belongs 631 nM.
